# Literature values in patent US20090196935A1, “Pharmaceutical Capsules Comprising Extended Release Dipyridamole Pellets” (priority 2008, published 2009).
# Key:
# [1] = in vivo
# [2] = not given; remark: listed apart in the source
smiles,measurement,setting,value
"OCCN(CCO)c1nc(N2CCCCC2)c2nc(N(CCO)CCO)nc(N3CCCCC3)c2n1 [Dipyridamole, 2,6-bis-(diethanolamino)-4,8-dipiperidino-(5,4-d)-pyrimidine]",solubility in acidic mediums,acidic mediums with a pH below 4,soluble
same,solubility in dilute acids,dilute acids,soluble
same,solubility in water,water,practically insoluble
same,solubility in water at a pH greater than 4,water at a pH greater than 4,practically insoluble
same,solubility,"weak base, medium not stated",poor solubility
same,biological half-life,[1],less than one hour
same,pKa,[2],6.1
